Results published in patent US4740233A, “Substituted 1,2,4-triazolo[1,5-a]-pyrimidine-2-sulfonamides and compositions and methods of controlling undesired vegetation and suppressing the nitrification of ammonium nitrogen in soil” (The Dow Chemical Company, priority 1986, dated 1988).

What was measured:
yellow foxtail = test: Postemergent control of plant species; format: in vivo, Setaria lutescens; conditions: Setaria, post-emergence, 336 h, read-out: percent postemergent control
Outline: (§1)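 Growth reduction versus untreated plants of each species, scored about two weeks after spraying, defines control here. Test emulsions contained compound in acetone diluted 1:1 into water bearing 0.1% surfactant; plants were treated at the 2-4 leaf stage in the greenhouse.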

rice [1] = test: Control of aquatic plant species (paddy water); format: in vivo, Oryza sativa; conditions: Oryza sativa, 216 h, nine days, read-out: Percent control; for pest or weed control at 1000 g/ha: 1.0 Kg/Ha
Protocol: (§2) In testing for such utility, the plant species to be tested were transplanted into 16 oz. containers into about 2 inches of soil when they were in the 1-2 inch stage and then flooded to a depth of about 1 inch. An acetone concentrate of the chemical to be tested was then injected into the paddy water, the volume injected being varied as desired to provide the desired concentration. Percent control was evaluated nine days after application.

jimsonweed = test: Postemergent control of plant species; format: in vivo, Datura stramonium; conditions: Datura stramonium, post-emergence, 336 h, read-out: percent postemergent control
Outline: as §1

johnson grass = test: Postemergent control of plant species; format: in vivo, Sorghum halepense; conditions: Sorghum halepense, post-emergence, 336 h, read-out: percent postemergent control
Outline: as §1

cotton = test: Postemergent control of plant species; format: in vivo, Gossypium spp.; conditions: Gossypium hirsutum, post-emergence, 336 h, read-out: percent postemergent control
Outline: as §1

annual morning glory = test: Postemergent control of plant species; format: in vivo, Ipomoea spp.; conditions: Ipomoea, post-emergence, 336 h, read-out: percent postemergent control
Outline: as §1

wheat = test: Postemergent control of plant species; format: in vivo, Triticum aestivum; conditions: Triticum aestivum, post-emergence, 336 h, read-out: percent postemergent control
Outline: as §1

yellow nutsedge [2] = test: Postemergent control of plant species; format: in vivo, Cyperus esculentus; conditions: Cyperus, post-emergence, 336 h, read-out: percent postemergent control
Outline: as §1

rice [3] = test: Postemergent control of plant species; format: in vivo, Oryza sativa; conditions: Oryza sativa, post-emergence, 336 h, read-out: percent postemergent control
Outline: as §1

sugar beet = test: Postemergent control of plant species; format: in vivo, Beta saccharifera; conditions: Beta vulgaris, post-emergence, 336 h, read-out: percent postemergent control
Outline: as §1

crabgrass = test: Postemergent control of plant species; format: in vivo, Digitaria spp.; conditions: Digitaria sanguinalis, post-emergence, 336 h, read-out: percent postemergent control
Outline: as §1

soybean = test: Postemergent control of plant species; format: in vivo, Glycine max.; conditions: Glycine max, post-emergence, 336 h, read-out: percent postemergent control
Outline: as §1

[4] = tested on: nitrification of ammonium nitrogen; test: Suppression of nitrification of ammonium nitrogen in soil; conditions: 27° C.
Outline: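 Value is % NH4-N remaining after a two-week, 27° C incubation of treated soil held at 1/3 bar tension moisture. Nitrate was measured with an ion-selective electrode after extraction with ammonium sulfate solution and 10 min shaking.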

rape = test: Postemergent control of plant species; format: in vivo, Brassica napus; conditions: Brassica napus, post-emergence, 336 h, read-out: percent postemergent control
Outline: as §1

sorghum = test: Postemergent control of plant species; format: in vivo, Sorghum vulgare; conditions: Sorghum, post-emergence, 336 h, read-out: percent postemergent control
Outline: as §1

wild oats = test: Postemergent control of plant species; format: in vivo, Avena fatua; conditions: Avena fatua, post-emergence, 336 h, read-out: percent postemergent control
Outline: as §1

corn = test: Postemergent control of plant species; format: in vivo, Zea mays; conditions: Zea mays, post-emergence, 336 h, read-out: percent postemergent control
Outline: as §1

barnyardgrass [5] = test: Control of aquatic plant species (paddy water); format: in vivo, Echinochloa crusgalli; conditions: Echinochloa crus-galli, 216 h, nine days, read-out: Percent control; for pest or weed control at 1000 g/ha: 1.0 Kg/Ha
Protocol: as §2

barnyardgrass [6] = test: Postemergent control of plant species; format: in vivo, Echinochloa crusgalli; conditions: Echinochloa crus-galli, post-emergence, 336 h, read-out: percent postemergent control
Outline: as §1

velvetleaf = test: Postemergent control of plant species; format: in vivo, Abutilon theophrasti; conditions: Abutilon theophrasti, post-emergence, 336 h, read-out: percent postemergent control
Outline: as §1

yellow nutsedge [7] = test: Control of aquatic plant species (paddy water); format: in vivo, Cyperus esculentus; conditions: Cyperus, 216 h, nine days, read-out: Percent control; for pest or weed control at 1000 g/ha: 1.0 Kg/Ha
Protocol: as §2

pigweed = test: Postemergent control of plant species; format: in vivo, Amaranthus spp.; conditions: Amaranthus retroflexus, post-emergence, 336 h, read-out: percent postemergent control
Outline: as §1

sprangletop = test: Control of aquatic plant species (paddy water); format: in vivo, Leptochloa filiformis; conditions: Leptochloa filiformis, 216 h, nine days, read-out: Percent control; for pest or weed control at 1000 g/ha: 1.0 Kg/Ha
Protocol: as §2

cocklebur = test: Postemergent control of plant species; format: in vivo, Xanthium spp.; conditions: Xanthium strumarium, post-emergence, 336 h, read-out: percent postemergent control
Outline: as §1

Compound | pest or weed control at 500 ppm (yellow foxtail) [%] | pest or weed control at 500 ppm (jimsonweed) [%] | pest or weed control at 500 ppm (johnson grass) [%] | plant injury at 500 ppm (cotton) [%] | pest or weed control at 500 ppm (annual morning glory) [%] | plant injury at 500 ppm (wheat) [%] | pest or weed control at 500 ppm (yellow nutsedge [2]) [%] | plant injury at 500 ppm (rice [3]) [%] | plant injury at 500 ppm (sugar beet) [%] | pest or weed control at 500 ppm (crabgrass) [%] | plant injury at 500 ppm (soybean) [%] | % NH4-N Remaining After 2 Weeks Incubation ([4]; 1 ppm) [%] | plant injury at 500 ppm (rape) [%] | plant injury at 500 ppm (sorghum) [%] | pest or weed control at 500 ppm (wild oats) [%] | plant injury at 500 ppm (corn) [%] | pest or weed control at 500 ppm (barnyardgrass [6]) [%] | pest or weed control at 500 ppm (velvetleaf) [%] | pest or weed control at 500 ppm (pigweed) [%] | pest or weed control at 500 ppm (cocklebur) [%] | also measured
Cc1cc(C)n2nc(S(=O)(=O)Nc3cccc(Cl)c3)nc2n1 [Compound 17] | 20 | 0 | 60 | 15 | 0 | 0 | 0 | 0 | 10 | 0 | 15 | 38 | 70 | 40 | 0 | 20 | 0 | 70 | 50 | 10 | pest or weed control at 4000 g/ha (rice [1]; 4.0 Kg/Ha): 97%; % NH4-N Remaining After 2 Weeks Incubation ([4]; 0.01 ppm): 0%; % NH4-N Remaining After 2 Weeks Incubation ([4]; 0.1 ppm): 1%; % NH4-N Remaining After 2 Weeks Incubation ([4]; 10 ppm): 80%; pest or weed control at 4000 g/ha (barnyardgrass [5]; 4.0 Kg/Ha): 40%; pest or weed control at 4000 g/ha (yellow nutsedge [7]; 4.0 Kg/Ha): 90%; pest or weed control at 4000 g/ha (sprangletop; 4.0 Kg/Ha): 0%
Cc1cc(C)n2nc(S(=O)(=O)Nc3c(C)cccc3C)nc2n1 [Compound 32, 5,7-dimethyl-N-(2,6-dimethylphenyl)-1,2,4-triazolo[1,5-a]pyrimidine-2-sulfonamide] | 10 | 60 | 95 | 20 | 0 | 30 | 0 | 10 | 30 | 10 | 15 | 82 | 0 | 0 | 0 | 0 | 0 | 50 | 0 | 15 | pest or weed control at 500 g/ha (rice [1]; 0.5 Kg/Ha): 93%; % NH4-N Remaining After 2 Weeks Incubation ([4]; 0.01 ppm): 0%; % NH4-N Remaining After 2 Weeks Incubation ([4]; 0.1 ppm): 33%; % NH4-N Remaining After 2 Weeks Incubation ([4]; 10 ppm): 100%; pest or weed control at 500 g/ha (barnyardgrass [5]; 0.5 Kg/Ha): 97%; pest or weed control at 500 g/ha (yellow nutsedge [7]; 0.5 Kg/Ha): 95%; pest or weed control at 500 g/ha (sprangletop; 0.5 Kg/Ha): 95%
COC(=O)c1ccccc1NS(=O)(=O)c1nc2nc(C)cc(C)n2n1 [Compound 10, methyl N-(5,7-dimethyl-1,2,4-triazolo[1,5-a]pyrimidine-2-sulfonyl)anthranilate] | 0 | 0 | 0 | 0 | 0 | 0 | 0 |  | 60 | 0 | 20 | 27 | 10 | 0 | 0 | 0 | 0 | 0 | 20 | 15 | pest or weed control at 1000 g/ha (rice [1]): 93%; % NH4-N Remaining After 2 Weeks Incubation ([4]; 0.01 ppm): 0%; % NH4-N Remaining After 2 Weeks Incubation ([4]; 0.1 ppm): 0%; % NH4-N Remaining After 2 Weeks Incubation ([4]; 10 ppm): 70%; pest or weed control at 1000 g/ha (barnyardgrass [5]): 90%; pest or weed control at 1000 g/ha (yellow nutsedge [7]): 90%; pest or weed control at 1000 g/ha (sprangletop): 50%
Cc1ccnc2nc(S(=O)(=O)Nc3c(Cl)cccc3Cl)nn12 [Compound 180] | 75 | 100 | 20 | 100 | 90 | 0 | 90 | 10 | 100 | 90 | 100 |  | 100 | 50 | 0 | 0 | 10 | 100 |  | 100 | pest or weed control at 250 g/ha (rice [1]; 0.25 Kg/Ha): 0%; pest or weed control at 1000 g/ha (rice [1]): 80%; pest or weed control at 250 g/ha (barnyardgrass [5]; 0.25 Kg/Ha): 90%; pest or weed control at 1000 g/ha (barnyardgrass [5]): 97%; pest or weed control at 250 g/ha (yellow nutsedge [7]; 0.25 Kg/Ha): 90%; pest or weed control at 1000 g/ha (yellow nutsedge [7]): 97%; pest or weed control at 250 g/ha (sprangletop; 0.25 Kg/Ha): 0%; pest or weed control at 1000 g/ha (sprangletop): 97%
Cc1cc(C)n2nc(S(=O)(=O)Nc3ccccc3Cl)nc2n1 [Compound 7, 5,7-dimethyl-N-(2-chlorophenyl)-1,2,4-triazolo[1,5-a]pyrimidine-2-sulfonamide] | 25 | 20 | 50 |  | 90 | 0 | 65 | 15 | 100 | 0 | 55 | 80 | 90 | 65 | 0 | 0 | 35 | 65 | 60 | 100 | pest or weed control at 1000 g/ha (rice [1]): 97%; % NH4-N Remaining After 2 Weeks Incubation ([4]; 0.06 ppm): 17%; % NH4-N Remaining After 2 Weeks Incubation ([4]; 0.125 ppm): 30%; % NH4-N Remaining After 2 Weeks Incubation ([4]; 0.25 ppm): 62%; % NH4-N Remaining After 2 Weeks Incubation ([4]; 0.5 ppm): 73%; pest or weed control at 1000 g/ha (barnyardgrass [5]): 99%; pest or weed control at 1000 g/ha (yellow nutsedge [7]): 90%; pest or weed control at 1000 g/ha (sprangletop): 93%
